Assay results from paper PMC4830892, “A microarray-based approach to evaluate the functional significance of protein-binding motifs” (Analytical and Bioanalytical Chemistry, 2016).
Non-standard residues stand in square brackets, D forms with d. Residues, ends and D or L forms follow the SMILES beside them. pY = N[C@@H](Cc1ccc(OP(=O)(O)O)cc1)C(=O)O; Ahx = NCCCCCC(=O)O

How the values were obtained:
[1] = molecular target: α-phosphotyrosine antibody (α-pTyr 100); experiment: Titration of α-pY antibody on peptide microarrays; assay type: binding; details: for Kd: peptide microarray, α-pY antibody 0.06 to 6.66 nM, 3 h at 4 °C, indirect immunofluorescence (Alexa633), bimolecular binding isotherm (Eq. 1), average ± standard deviation, six independent experiments; for α-pY titration curve / binding: result in words, R^2 of 0.8 as cutoff for a binder
Description: (§1) Peptides that correspond to known interaction motifs involved in the formation of protein complexes in T cell signalling were purchased from EMC microcollections (Tübingen, Germany). All peptides carried an extra cysteine residue and a free N-terminus for immobilisation on the microarray substrates and a C-terminal amidation (see Electronic Supplementary Material (ESM), Table S1).
(§2) For generation of microarrays, peptide stock solutions (3 mM) in DMF were diluted 30 times with phosphate buffer (100 mM, pH 8) supplemented with 0.006 % (v/v) Triton X-100. N-Hydroxysuccinimide-preactivated slides served as substrates for immobilisation (Nexterion Slide H, Schott Nexterion/Peq-Lab, Erlangen, Germany) using a Nano-Plotter NP2.0 (GeSIM, Großerkmannshof, Germany), which employs piezo-driven pipetting tips to dispense peptide solutions. Microarray slides comprised 16 subarrays of doublets of each peptide. For each peptide, a volume of 1.2 nl was dispensed at a centre-to-centre spacing of 500 μm. During printing, temperature was maintained at 15 °C and air humidity at 65 %.
(§3) Sixteen incubation chambers with identical subarrays consisting of peptides derived from binding motifs of signalling proteins (see ESM Table S1) were generated by attaching a clip-on frame to the microarray substrate (ProPlate Multiarray System, Grace Biolabs, Molecular Probes, Eugene, OR, USA). The typical incubation volume for the subarrays was 50 μl. Microarrays were either incubated with an α-pY antibody (α-pTyr 100, 9411, Cell Signalling, Frankfurt am Main, Germany) at the indicated concentrations or co-incubated with cell lysate at the indicated concentrations for 3 h at 4 °C. Additionally, in another set of experiments, recombinant GRB2-SH2 was incubated on microarrays alone or co-incubated with cell lysate employing an α-penta HIS antibody (34600, Qiagen, Hilden, Germany) for the detection of His-tagged GRB2-SH2.
(§4) After incubation, microarrays were washed three times with washing buffer (PBS, 0.05 % (w/v) BSA, 0.05 % (w/v) Tween-20). For the detection of signals, microarrays were incubated with a secondary α-mouse antibody conjugated with Alexa633 (A-21050, Invitrogen) at a concentration of 1 μg/ml for 15 min at RT followed by a last washing step with washing buffer. Microarrays were dried with nitrogen and scanned using a ProScanArray (PerkinElmer Life Sciences, Waltham, Massachusetts), and the data were analysed using ArrayPro Analyzer software (Media Cybernetics, Silver Spring, USA) as described before. Final data represented the mean signal intensities corrected for the median of a ring-shaped local background surrounding the respective peptide spot. Titrations with α-pY antibody and GRB2-SH2 were performed to calculate dissociation constants (see below).
The resulting titration curves were fitted with Origin (OriginLab Corporation, v.6.1057, Northampton, USA) using a binding isotherm for a bimolecular interaction (Eq. 1):1 Fabs=Fmaxprot/Kd+prot Fabs represents the intensity of a microarray spot after background correction and [prot] the concentration of the titrated binder. Kd and Fmax were obtained from the fits.
To render this approach quantitative, first the affinities of the α-pY antibody towards the phosphotyrosine motifs of the microarrays were determined. […] The titration curves were fitted with a binding isotherm for a bimolecular interaction (Eq. 1, Fig. 2a, Table 1). In general, a coefficient of determination (R^2) of 0.8 was used as a cutoff in order to score a peptide as a binder. […] Regarding the poly-proline motif (PP) containing peptides present on the microarray, only on the peptide GAB2-509 in five experiments, a titration curve with an R^2 > 0.8 could be generated.

[2] = system: proteins in Jurkat cell lysate (total cellular proteome); experiment: Competition of α-pY antibody binding with Jurkat cell lysate on peptide microarrays; details: for Kd: from EC50 and Kd α-pY by Cheng-Prusoff equation (Eq. 4), ± standard deviation
Description: as §1, §2
Jurkat T cell leukaemia cells were maintained in RPMI 1640 medium (PAN-Biotech, Aisenbach, Germany) supplemented with 10 % foetal calf serum at 37 °C in 5 % CO2. For the preparation of lysates, cells were resuspended in lysis buffer (1 % Triton X-100, 50 mM n-octyl-D-glucopyranoside (Fluka, Taufkirchen, Germany), 20 mM Tris, 1 mM EDTA, 150 mM NaCl, 1 mM Na3VO4, pH 7.5, and complete protease inhibitor cocktail (Roche Applied Science, Mannheim, Germany)). Incubation on ice for 1 h was followed by centrifugation at 20,000×g at 4 °C for 15 min to remove cell debris. Transmembrane proteins were extracted from lipid rafts by using N-octyl-D-glucopyranoside. Protein concentrations were measured by Bradford Assay.
as §3, §4
For determination of EC50 values for competition with cell lysate, curves were fitted according to2 y=y0+Ae^−x/t with y0 as the signal intensity of the α-pY antibody or the recombinant GRB2-SH2 domain without cell lysate, A the amplitude, x the protein concentration in lysate, and t the decay constant. […]

Q: With CC(C)C[C@H](NC(=O)[C@@H](NC(=O)[C@H](CC(=O)O)NC(=O)[C@H](Cc1ccc(OP(=O)(O)O)cc1)NC(=O)[C@H](CCC(=O)O)NC(=O)[C@H](CCC(=O)O)NC(=O)[C@H](CCCNC(=N)N)NC(=O)[C@H](CCCNC(=N)N)NC(=O)CNC(=O)[C@H](CC(C)C)NC(=O)[C@H](CC(N)=O)NC(=O)[C@H](CC(C)C)NC(=O)[C@H](CCC(=O)O)NC(=O)[C@H](CC(N)=O)NC(=O)[C@H](Cc1ccc(OP(=O)(O)O)cc1)NC(=O)[C@H](CC(C)C)NC(=O)[C@H](CCC(N)=O)NC(=O)[C@H](CC(N)=O)NC(=O)CCCCCNC(=O)[C@@H](N)CS)C(C)C)C(N)=O [CD3ζpY72/83] (H-C[Ahx]NQL[pY]NELNLGRREE[pY]DVL-NH2) as the compound, how does the Kd [1] read?
A: 0.69 ± 0.61 nM

Q: What about the Kd [2] of the same compound?
A: 25000 ± 27000 nM

Q: How did the Kd [1] turn out when CC(C)[C@H](NC(=O)[C@H](CC(=O)O)NC(=O)[C@H](CC(=O)O)NC(=O)[C@H](Cc1ccc(OP(=O)(O)O)cc1)NC(=O)[C@@H](NC(=O)[C@H](CCC(=O)O)NC(=O)[C@H](CCC(N)=O)NC(=O)[C@H](CC(=O)O)NC(=O)[C@H](CC(=O)O)NC(=O)[C@H](CCC(=O)O)NC(=O)[C@@H](N)CS)C(C)C)C(=O)N[C@@H](C)C(=O)N[C@@H](CCC(=O)O)C(=O)N[C@@H](CCC(N)=O)C(=O)N[C@@H](CC(=O)O)C(N)=O [FYBpY595] (H-CEDDQEV[pY]DDVAEQD-NH2) was run?
A: 0.77 ± 0.28 nM

Q: CC[C@H](C)[C@H](NC(=O)CNC(=O)[C@H](CC(=O)O)NC(=O)[C@H](Cc1ccc(OP(=O)(O)O)cc1)NC(=O)[C@@H](NC(=O)[C@H](CC(=O)O)NC(=O)[C@H](CC(=O)O)NC(=O)[C@H](CC(=O)O)NC(=O)[C@@H](N)CS)[C@@H](C)CC)C(=O)N[C@@H](CCC(=O)O)C(=O)N[C@@H](CCC(=O)O)C(=O)N[C@@H](CCC(=O)O)C(=O)N[C@@H](CC(=O)O)C(N)=O [FYBpY625] (H-CDDDI[pY]DGIEEED-NH2) was tested. Which Kd [1] did it give?
A: 0.46 ± 0.15 nM

Q: And the Kd [2]?
A: 17000 ± 13000 nM

Q: For CSCC[C@H](NC(=O)[C@H](CC(=O)O)NC(=O)[C@H](CC(C)C)NC(=O)[C@@H](N)CS)C(=O)NCC(=O)N[C@@H](CC(=O)O)C(=O)N[C@@H](CCC(=O)O)C(=O)N[C@H](C(=O)N[C@@H](Cc1ccc(OP(=O)(O)O)cc1)C(=O)N[C@@H](CC(=O)O)C(=O)N[C@@H](CC(=O)O)C(=O)N[C@H](C(=O)N[C@@H](CC(=O)O)C(=O)N[C@H](C(=O)N[C@@H](CO)C(=O)N[C@@H](CC(=O)O)C(=O)N[C@@H](Cc1ccccc1)C(N)=O)[C@@H](C)O)C(C)C)C(C)C [FYBpY651] (H-CLDMGDEV[pY]DDVDTSDF-NH2), which Kd [1] is on record?
A: 0.28 ± 0.09 nM

Q: What about the Kd [2] of the same compound?
A: 12000 ± 9000 nM

Q: How did the Kd [1] turn out when CC[C@H](C)[C@H](NC(=O)[C@H](CC(=O)O)NC(=O)[C@H](CC(=O)O)NC(=O)[C@H](Cc1ccc(OP(=O)(O)O)cc1)NC(=O)[C@@H](NC(=O)[C@H](CCC(=O)O)NC(=O)CNC(=O)[C@H](CC(=O)O)NC(=O)[C@H](CC(N)=O)NC(=O)[C@@H](N)CS)[C@@H](C)CC)C(=O)N[C@@H](C)C(=O)N[C@@H](CC(=O)O)C(=O)NCC(N)=O [FYBpY771] (H-CNDGEI[pY]DDIADG-NH2) was run?
A: 0.5 ± 0.23 nM

Q: And the “affinity for / binding to cellular proteome (in words)” value ([2]; competition of α-pY with cell lysate, FYB peptides)?
A: highest affinity of all four FYB peptides

Q: And the Kd [2]?
A: 5000 ± 1000 nM

Q: CC(C)C[C@H](NC(=O)[C@H](CCC(=O)O)NC(=O)[C@H](CCC(=O)O)NC(=O)[C@@H]1CCCN1C(=O)[C@H](CC(=O)O)NC(=O)[C@H](CO)NC(=O)[C@H](Cc1ccc(OP(=O)(O)O)cc1)NC(=O)[C@@H]1CCCN1C(=O)[C@H](CO)NC(=O)[C@H](CCC(=O)O)NC(=O)[C@H](Cc1ccc(O)cc1)NC(=O)[C@@H](NC(=O)[C@@H](N)CS)C(C)C)C(=O)N[C@@H](CCCCN)C(=O)N[C@@H](CC(=O)O)C(N)=O [ZAPpY319] (H-CVYESP[pY]SDPEELKD-NH2) was tested. Which Kd [1] did it give?
A: 0.6 ± 0.46 nM

Q: What about the Kd [2] of the same compound?
A: 26000 ± 32000 nM

Q: For CGNKGRSGPLPPVPLGIA-NH2 [WAS334], which “α-pY titration curve / binding” value [1] is on record?
A: no titration curves could be generated

Q: Which “α-pY titration curve / binding” value [1] does the source give for CLDIQDKPPAPPMRNT-NH2 [PAK6] here?
A: no titration curves could be generated
